The target in experiment [1] is T1, C-C chemokine receptor type 4 (Homo sapiens) (UniProt P51679).
T1 sequence (whole entry): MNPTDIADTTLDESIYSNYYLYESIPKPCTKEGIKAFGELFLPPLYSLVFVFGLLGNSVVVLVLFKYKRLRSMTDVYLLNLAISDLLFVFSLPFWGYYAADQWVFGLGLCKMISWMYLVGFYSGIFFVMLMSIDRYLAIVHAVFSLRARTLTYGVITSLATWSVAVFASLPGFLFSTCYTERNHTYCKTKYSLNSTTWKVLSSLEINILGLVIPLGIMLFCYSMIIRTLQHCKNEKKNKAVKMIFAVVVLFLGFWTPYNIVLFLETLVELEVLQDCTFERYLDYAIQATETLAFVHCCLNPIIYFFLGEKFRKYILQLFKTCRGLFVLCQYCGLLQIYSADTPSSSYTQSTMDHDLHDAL
The experiment in a line: Antagonist activity at human CCR4 receptor assessed as inhibition of CCL22-induced chemotaxis at 1 uM by bioluminescent assay. It counts as functional.

Experiment [2] deals with T2, C-C chemokine receptor type 4 (Mus musculus) (UniProt P51680).
T2 sequence (whole entry): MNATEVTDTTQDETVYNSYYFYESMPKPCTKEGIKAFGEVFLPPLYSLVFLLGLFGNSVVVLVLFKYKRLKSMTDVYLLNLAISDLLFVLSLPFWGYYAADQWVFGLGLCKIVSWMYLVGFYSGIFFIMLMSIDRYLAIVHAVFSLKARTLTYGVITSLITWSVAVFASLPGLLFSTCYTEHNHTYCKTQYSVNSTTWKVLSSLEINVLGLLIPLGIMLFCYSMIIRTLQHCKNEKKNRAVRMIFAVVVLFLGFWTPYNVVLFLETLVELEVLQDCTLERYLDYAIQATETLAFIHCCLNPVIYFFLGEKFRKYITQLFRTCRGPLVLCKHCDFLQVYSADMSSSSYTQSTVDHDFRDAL
Briefly: Antagonist activity at mouse CCR4 receptor assessed as inhibition of CCL22-induced chemotaxis at 1 uM by bioluminescent assay. It counts as functional.

Experiment [3] addresses T3, C-C chemokine receptor type 4 (Homo sapiens, UniProt P51679).
T3 sequence (P51679 whole entry): T1 sequence (whole entry)
The experiment in a line: Antagonist activity at human CCR4 receptor by [35S]GTPgammaS binding assay. It counts as functional.

Experiment [4] concerns the target T3, C-C chemokine receptor type 4. The experiment in a line: Displacement of […]CCL22 from human CCR4 receptor by scintillation proximity assay.
The subject of another experiment is Mus musculus. Briefly: Antiinflammatory activity against oxazolone-induced contact hypersensitivity in acute dermatitis BALB/c mouse model assessed as inhibition of ear swelling at 30 mg/kg, sc administered twice daily before 0.5 hrs and after 8 hrs of oxazolone challenge assessed after 24 hrs. It counts as functional. Conditions: route subcutaneous.

As for `CCN(CC)CCN1CCCN(c2nc(Nc3ccc(Cl)cc3)c3cc(OC)c(OC)cc3n2)CC1`, the inhibition in experiment [1] came out at 15%; in experiment [2], 42%. The IC50 in experiment [3] came out at 92 nM. `COc1cc2nc(N3CCCN(C4CCCCC4)CC3)nc(Nc3ccc(Cl)cc3)c2cc1OC`: the IC50 in experiment [3] amounted to 550 nM. Take `COc1cc2nc(N3CCC(N(C)CCCCO)CC3)nc(Nc3ccc(Cl)cc3)c2cc1OC`: the inhibition in experiment [2] amounted to 42%. The compound also showed an IC50 in experiment [3] of 61 nM. For `COc1cc2nc(N3CCC(N4CCCC4)CC3)nc(Nc3cccc(Br)c3)c2cc1OC`, the results for the inhibition in experiment [1] and in experiment [2] were 36% and 11%, respectively. For the same compound, the IC50 in experiment [3] amounted to 220 nM; in experiment [4] it was 510 nM. Consider `COc1cc2nc(N3CCC(N4CCCC4)CC3)nc(Nc3ccc(Cl)cc3)c2cc1OC`, for which the inhibition in vivo at 30 mg/kg in the experiment on Mus musculus was 42.5%. The values for the 50% inhibitory concentration (IC50) in experiment [3] and in experiment [4] were 24 nM and 150 nM, respectively. `COc1cc2nc(N3CCCN(CCN4CCCC4)CC3)nc(Nc3ccc(Cl)cc3)c2cc1OC` had an IC50 in experiment [3] of 150 nM. Consider `COc1cc2nc(N3CCC(N(C)CCCO)CC3)nc(Nc3ccc(Cl)cc3)c2cc1OC`, for which, in experiment [2], the inhibition was found to be 32%. Also, the concentration for half-maximal inhibition (IC50) in experiment [3] was 43 nM. `COc1cc2nc(N3CCCN(CCN4CCCCC4)CC3)nc(Nc3ccc(Cl)cc3)c2cc1OC`: the IC50 in experiment [3] was 130 nM. Regarding `COc1cc2nc(N3CCC(N(C)CCO)CC3)nc(Nc3ccc(Cl)cc3)c2cc1OC`, in experiment [1], the inhibition was 47%. The IC50 in experiment [3] is 98 nM. Take `COc1cc2nc(N3CCC(N4CCCC4)CC3)nc(Nc3ccc(F)c(F)c3)c2cc1OC`: the IC50 in experiment [3] was found to be 25 nM.

With `COc1cc2nc(N3CCC(N4CCCC4)CC3)nc(Nc3ccc(F)cc3)c2cc1OC`, the IC50 in experiment [3] was determined as 31 nM.

The values are drawn from ChEMBL document CHEMBL1139410, “Potent CCR4 antagonists: synthesis, evaluation, and docking study of 2,4-diaminoquinazolines” (Bioorg Med Chem, 2008).
